Experimental data taken from PMC5845004, “Novel (p)ppGpp Binding and Metabolizing Proteins of Escherichia coli” (mBio, 2018).

Experiments:
[1] = target: T1, YgdH (Escherichia coli, UniProt P0ADR8); assay: DRaCALA binding and Kd determination, purified YgdH; design: species or system E. coli; settings: DRaCALA, in the presence of EDTA (without Mg2+); read-out: Kd, YgdH + EDTA (converted)
Procedure: (§4) For Kd measurements by DRaCALA, 2-fold serial dilutions from the highest possible concentrations of each purified protein were prepared in binding buffer B, and approximately 2 nM concentrations of α-^32P-labeled ppGpp, pppGpp, GTP, and GDP were added. The mixtures were incubated for 5 min at RT before spotting of 2 µl of the reaction mixtures onto nitrocellulose membranes. […] For competition assays, purified proteins at the specified concentrations were incubated with 2 nM [α-^32P]ppGpp or [α-^32P]pppGpp in the presence of 100 μM competitor nucleotides in binding buffer B. The reaction mixtures were incubated for 5 min at RT, 2 µl was spotted onto nitrocellulose membranes, and the values corresponding to the bound fractions were determined. EDTA was added at excess concentrations as specified for each case.

[2] = target: Der (Escherichia coli, UniProt P0A6P5); assay: DRaCALA Kd determination, purified Der; assay type: binding, E. coli; settings: 2 nM 32P-labeled ligand, read-out: apparent Kd, Der
Chain of Der (P0A6P5 whole entry): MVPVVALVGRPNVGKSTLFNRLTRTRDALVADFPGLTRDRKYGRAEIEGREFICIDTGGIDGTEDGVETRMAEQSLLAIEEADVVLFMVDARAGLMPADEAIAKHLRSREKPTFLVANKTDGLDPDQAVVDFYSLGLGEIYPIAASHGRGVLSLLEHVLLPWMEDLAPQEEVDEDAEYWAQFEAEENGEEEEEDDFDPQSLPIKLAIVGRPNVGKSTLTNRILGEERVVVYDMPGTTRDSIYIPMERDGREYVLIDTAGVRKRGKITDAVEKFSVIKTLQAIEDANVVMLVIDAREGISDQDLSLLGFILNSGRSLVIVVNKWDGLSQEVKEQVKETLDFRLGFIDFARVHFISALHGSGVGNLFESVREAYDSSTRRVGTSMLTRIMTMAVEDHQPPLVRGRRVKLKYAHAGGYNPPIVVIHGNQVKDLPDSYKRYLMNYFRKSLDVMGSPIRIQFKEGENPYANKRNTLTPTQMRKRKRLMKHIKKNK
Procedure: as §4

[3] = target: RF3 (PrfC) (Escherichia coli, UniProt P0A7I4); assay: DRaCALA Kd determination, purified RF3; assay type: binding, E. coli; settings: 2 nM 32P-labeled ligand, read-out: apparent Kd, RF3 (PrfC)
Chain of RF3 (PrfC) (P0A7I4 whole entry): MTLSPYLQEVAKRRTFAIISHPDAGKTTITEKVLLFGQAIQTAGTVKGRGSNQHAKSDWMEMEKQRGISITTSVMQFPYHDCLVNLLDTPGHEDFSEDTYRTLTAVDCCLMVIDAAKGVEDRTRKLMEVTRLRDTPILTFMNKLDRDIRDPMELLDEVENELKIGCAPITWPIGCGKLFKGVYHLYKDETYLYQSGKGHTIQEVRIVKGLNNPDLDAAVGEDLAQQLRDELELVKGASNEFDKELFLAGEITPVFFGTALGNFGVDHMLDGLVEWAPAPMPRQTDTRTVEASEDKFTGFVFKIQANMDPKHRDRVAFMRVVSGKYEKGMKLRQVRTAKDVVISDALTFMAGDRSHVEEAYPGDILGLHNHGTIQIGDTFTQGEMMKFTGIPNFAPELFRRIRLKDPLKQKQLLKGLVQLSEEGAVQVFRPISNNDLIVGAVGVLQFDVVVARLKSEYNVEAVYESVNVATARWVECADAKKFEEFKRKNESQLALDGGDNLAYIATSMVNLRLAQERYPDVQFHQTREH
Procedure: (§5) For Kd measurements by DRaCALA, 2-fold serial dilutions from the highest possible concentrations of each purified protein were prepared in binding buffer B, and approximately 2 nM concentrations of α-^32P-labeled ppGpp, pppGpp, GTP, and GDP were added. The mixtures were incubated for 5 min at RT before spotting of 2 µl of the reaction mixtures onto nitrocellulose membranes. The fractions of bound ligand and the apparent Kd values were calculated as previously described ([37]).

[4] = target: SaDer (Staphylococcus aureus, UniProt A6QH24); assay: DRaCALA Kd determination, SaDer; assay type: binding, S. aureus
Chain of SaDer (A6QH24 whole entry): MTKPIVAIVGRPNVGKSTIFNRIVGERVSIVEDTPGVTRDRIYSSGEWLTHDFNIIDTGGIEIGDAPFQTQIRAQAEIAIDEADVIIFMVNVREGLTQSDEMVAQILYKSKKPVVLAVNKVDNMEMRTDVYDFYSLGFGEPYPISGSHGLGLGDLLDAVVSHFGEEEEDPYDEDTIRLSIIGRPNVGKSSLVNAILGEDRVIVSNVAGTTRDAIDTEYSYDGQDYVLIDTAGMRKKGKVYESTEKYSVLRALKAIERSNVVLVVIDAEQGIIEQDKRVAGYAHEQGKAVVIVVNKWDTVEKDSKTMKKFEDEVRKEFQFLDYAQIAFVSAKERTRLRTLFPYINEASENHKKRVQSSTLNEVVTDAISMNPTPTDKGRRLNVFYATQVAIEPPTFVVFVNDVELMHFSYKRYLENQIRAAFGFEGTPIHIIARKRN
Procedure: as §5

[5] = target: HypB (Escherichia coli, UniProt P0AAN3); assay: DRaCALA Kd determination, purified HypB; assay type: binding, E. coli; settings: 2 nM 32P-labeled ligand, read-out: apparent Kd, HypB
Chain of HypB (P0AAN3 whole entry): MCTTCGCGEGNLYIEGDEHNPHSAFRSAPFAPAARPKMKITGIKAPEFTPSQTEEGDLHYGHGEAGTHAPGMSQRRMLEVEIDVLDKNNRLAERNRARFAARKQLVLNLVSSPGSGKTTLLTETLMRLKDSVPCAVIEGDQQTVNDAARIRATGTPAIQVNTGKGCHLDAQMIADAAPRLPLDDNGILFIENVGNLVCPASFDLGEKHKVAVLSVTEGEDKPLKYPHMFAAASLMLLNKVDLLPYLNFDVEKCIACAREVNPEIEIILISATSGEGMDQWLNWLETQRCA
Procedure: as §4

[6] = target: T2, TrmE (Escherichia coli, UniProt P25522); assay: DRaCALA Kd determination, purified TrmE; assay type: binding, E. coli; settings: in the presence of magnesium, read-out: apparent Kd, TrmE
T2 sequence (P25522 whole entry): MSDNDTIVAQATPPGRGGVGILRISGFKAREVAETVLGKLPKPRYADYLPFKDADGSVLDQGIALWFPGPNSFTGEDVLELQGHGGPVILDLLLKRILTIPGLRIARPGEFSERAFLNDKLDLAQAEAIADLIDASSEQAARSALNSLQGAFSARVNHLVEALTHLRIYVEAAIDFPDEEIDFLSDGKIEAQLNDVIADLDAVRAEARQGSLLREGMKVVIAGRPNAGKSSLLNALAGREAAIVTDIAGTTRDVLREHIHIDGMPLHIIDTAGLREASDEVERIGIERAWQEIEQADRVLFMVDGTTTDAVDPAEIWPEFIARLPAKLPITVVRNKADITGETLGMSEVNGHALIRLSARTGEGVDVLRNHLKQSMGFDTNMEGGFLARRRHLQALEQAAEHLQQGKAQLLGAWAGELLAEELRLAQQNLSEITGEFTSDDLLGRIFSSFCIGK
Procedure: as §4

[7] = target: T3, NudG (Escherichia coli, UniProt P77788); assay: DRaCALA competition assay, lysate with overproduced NudG; assay type: binding, E. coli; settings: whole-cell lysate, 2 nM hot (p)ppGpp, 100 µM cold competitor
T3 construct: expressed in transfected cells; host or cells: E. coli ASKA collection strain, IPTG-induced, whole-cell lysate
T3 sequence (P77788 whole entry): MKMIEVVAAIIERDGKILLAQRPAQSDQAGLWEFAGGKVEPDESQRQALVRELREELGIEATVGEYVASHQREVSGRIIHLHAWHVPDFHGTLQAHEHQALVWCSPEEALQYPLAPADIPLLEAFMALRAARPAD
Procedure: (§1) Bacterial cells were collected and frozen at −80°C.

[8] = target: T4, UshA (Escherichia coli, UniProt P07024); assay: DRaCALA competition assay, lysate with overexpressed UshA; assay type: binding; settings: cell lysate, 2 nM hot (p)ppGpp, 100 µM cold competitor
T4 sequence (P07024 26-550): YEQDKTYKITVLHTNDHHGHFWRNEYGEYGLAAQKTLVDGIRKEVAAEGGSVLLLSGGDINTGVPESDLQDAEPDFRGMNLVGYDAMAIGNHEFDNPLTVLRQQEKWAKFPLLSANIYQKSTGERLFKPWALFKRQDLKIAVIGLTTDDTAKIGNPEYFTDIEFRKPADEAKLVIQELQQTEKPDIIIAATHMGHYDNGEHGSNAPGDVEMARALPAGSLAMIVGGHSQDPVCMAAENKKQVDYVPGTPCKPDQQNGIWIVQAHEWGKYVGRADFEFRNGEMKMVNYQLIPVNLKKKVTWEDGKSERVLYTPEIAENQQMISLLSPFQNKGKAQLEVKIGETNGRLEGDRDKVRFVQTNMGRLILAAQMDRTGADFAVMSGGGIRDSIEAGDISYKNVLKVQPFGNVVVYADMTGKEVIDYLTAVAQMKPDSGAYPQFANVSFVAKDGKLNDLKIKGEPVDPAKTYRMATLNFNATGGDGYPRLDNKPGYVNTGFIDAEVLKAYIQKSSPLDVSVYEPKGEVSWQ
Procedure: as §1

[9] = target: T5, MutT (Escherichia coli, UniProt P08337); assay: In vitro cleavage assay (TLC), MutT; assay type: biochemical, E. coli; settings: 1 µM MutT, 10 nM hot ppGpp, 100 µM competitor, 30°C, up to 1 h
T5 sequence (P08337 whole entry): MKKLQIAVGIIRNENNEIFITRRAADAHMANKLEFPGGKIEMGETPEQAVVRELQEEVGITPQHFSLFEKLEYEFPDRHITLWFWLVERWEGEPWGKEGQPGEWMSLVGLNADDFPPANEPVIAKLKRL
Procedure: (§2) The purified His6-MutT and His6-NudG proteins were tested for their relative levels of cleavage of ppGpp compared to those seen with their native substrates. For this, a 1 μM concentration of each protein and a 10 nM concentration of [α-^32P]ppGpp were used together with 100 μM concentrations of cold competitors [ppGpp, GTP, ATP, 8-oxo-(d)GTP, 2-hydroxyl-(d)ATP] or 50 mM EDTA in buffer B. The samples were incubated at 30°C for 10 min and for 1 h before the reactions were stopped by adding 50 mM EDTA. The cleavage products were resolved by TLC as described above. The purified His6-NadR and His6-TrmE proteins were tested for their cleavage of both GTP and ppGpp. For cleavage of GTP, 10 μM concentrations of His6-MBP, His6-TrmE, and 20 μM His6-NadR proteins were used with 2 nM [α-^32P]GTP and 100 μM cold GTP in buffer B. For cleavage of ppGpp, 10 μM concentrations of His6-TrmE, His6-MBP, and His6-NadR proteins were used with 10 nM [α-^32P]ppGpp in buffer B. Of note, for His6-TrmE, another reaction was also performed in buffer B supplemented with 100 mM KCl. The reactions were performed at RT for 10 min and were stopped by adding 17% formic acid. The cleavage products were resolved by TLC as described above.
(§3) A 20 μM concentration of each of purified proteins MutT, NudG, NadR, TrmE, and MBP (as a negative control) was incubated with 100 μM ppGpp in buffer B (containing 40 mM Tris [pH 7.5], 100 mM NaCl, and 10 mM MgCl2) for 20 min at room temperature. Samples were snap-frozen on dry ice and analyzed with UPLC-MS afterward. All samples and buffers were stored at −80°C, thawed on ice, and kept at 4°C during analysis. For the analysis, a UPLC-quadrupole time of flight (UPLC-qTOF) method (Waters) was used. Analysis conditions were as follows: column, zic-HILIC (Merck Millipore) (150 by 2.1 mm, […], gradient elution, flow rate set to 0.3 ml/min); mobile phase A, 10 mM ammonium acetate (pH 5); mobile phase B, 90% acetonitrile with 10 mM ammonium acetate (pH 5). The gradient was set up as follows: min 0 to 2, 80% B; min 2 to 16, 80% B to 50% B; hold until min 20; injection volume, 4 µl. The detection conditions were as follows: photodiode array detector (PDA), […] (evaluated at 260 nm); MS, ionization; electrospray ionization (ESI+), scan, 200 to 800 m/z with lock mass correction. Analytes were identified by their accurate mass and retention time data for a known standard dissolved in used buffer (for the chemicals of the same nominal masses). These standards were either synthesized and their structures confirmed by nuclear magnetic resonance (NMR) (for ppGp, pGpp, and pGp) or purchased (ppGpp was purchased from Jena Biocsience and GTP from Sigma-Aldrich).

[10] = target: T2, TrmE; assay: In vitro cleavage assay (TLC), TrmE; assay type: biochemical, E. coli; settings: 10 µM TrmE, buffer B, with 100 mM potassium where stated, 10 min
Procedure: as §2
A 20 μM concentration of each of purified proteins MutT, NudG, NadR, TrmE, and MBP (as a negative control) was incubated with 100 μM ppGpp in buffer B (containing 40 mM Tris [pH 7.5], 100 mM NaCl, and 10 mM MgCl2) for 20 min at room temperature. Samples were snap-frozen on dry ice and analyzed with UPLC-MS afterward. All samples and buffers were stored at −80°C, thawed on ice, and kept at 4°C during analysis. For the analysis, a UPLC-quadrupole time of flight (UPLC-qTOF) method (Waters) was used. […] The detection conditions were as follows: photodiode array detector (PDA), […] (evaluated at 260 nm); MS, ionization; electrospray ionization (ESI+), scan, 200 to 800 m/z with lock mass correction. […]

[11] = target: T3, NudG; assay: In vitro cleavage assay (TLC), NudG; assay type: biochemical, E. coli; settings: 1 µM NudG, 10 nM hot ppGpp, 100 µM competitor, 30°C
Procedure: as §2, §3

[12] = target: T1, YgdH; assay: DRaCALA competition assay, YgdH; assay type: binding, E. coli; settings: 50 µM YgdH, 100 µM cold competitor, without or with 1.5 mM magnesium
Procedure: as §4

[13] = target: T5, MutT; settings: whole-cell lysate, 2 nM hot (p)ppGpp, 100 µM cold competitor
Procedure: DRaCALA screening was performed essentially as described before ([39]) with minor modifications. Briefly, ASKA collection strains were inoculated into 1.5 ml LB broth with 25 μg/ml chloramphenicol in deep 96-well plates (Greiner) and grown over night at 30°C. IPTG (1 mM) was added the next morning to induce protein expression at 30°C for 6 h. Bacterial cells were collected and frozen at −80°C. To lyse cells, 150 μl buffer B with 2 mM phenylmethylsulfonyl fluoride (PMSF), 40 μg/ml DNase 1, and 0.5 mg/ml lysozyme was used to resuspend cell pellets and then subjected to three freeze-thaw cycles before Benzonase (Sigma) (2.5 U/well) was added to reduce lysate viscosity. A 20-μl volume of lysate was transferred into a 96-well V-bottom plate (Sterilin), incubated at 37°C for 15 min, and placed on ice. […] Membranes were dried for 10 min at RT, and binding signals were exposed to a BAS IP screen (GE Healthcare) and detected by the use of a Typhoon FLA-7000 PhosphorImager.
For competition assays, purified proteins at the specified concentrations were incubated with 2 nM [α-^32P]ppGpp or [α-^32P]pppGpp in the presence of 100 μM competitor nucleotides in binding buffer B. The reaction mixtures were incubated for 5 min at RT, 2 µl was spotted onto nitrocellulose membranes, and the values corresponding to the bound fractions were determined.

[14] = target: Hpt (Escherichia coli, UniProt P0A9M2); assay: DRaCALA competition assay, Hpt; assay type: binding, E. coli; settings: 20 µM Hpt, 2 nM hot ppGpp, 100 µM cold competitor
Chain of Hpt (P0A9M2 whole entry): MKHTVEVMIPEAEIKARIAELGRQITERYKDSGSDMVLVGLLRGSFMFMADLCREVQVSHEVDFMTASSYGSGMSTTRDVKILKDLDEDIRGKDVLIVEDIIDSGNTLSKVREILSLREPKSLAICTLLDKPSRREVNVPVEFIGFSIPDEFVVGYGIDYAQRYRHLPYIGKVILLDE
Procedure: For Kd measurements by DRaCALA, 2-fold serial dilutions from the highest possible concentrations of each purified protein were prepared in binding buffer B, and approximately 2 nM concentrations of α-^32P-labeled ppGpp, pppGpp, GTP, and GDP were added. The mixtures were incubated for 5 min at RT before spotting of 2 µl of the reaction mixtures onto nitrocellulose membranes. The fractions of bound ligand and the apparent Kd values were calculated as previously described ([37]). For competition assays, purified proteins at the specified concentrations were incubated with 2 nM [α-^32P]ppGpp or [α-^32P]pppGpp in the presence of 100 μM competitor nucleotides in binding buffer B. The reaction mixtures were incubated for 5 min at RT, 2 µl was spotted onto nitrocellulose membranes, and the values corresponding to the bound fractions were determined. EDTA was added at excess concentrations as specified for each case.

[15] = target: the molecule itself; assay: SEC; size exclusion FPLC profile of purified His6-YgdH (53 kDa) compared with protein standards

Nc1nc2c(ncn2[C@@H]2O[C@H](COP(=O)(O)OP(=O)(O)OP(=O)(O)O)[C@@H](O)[C@H]2O)c(=O)[nH]1 [GTP]
Kd [1]: 21.4 ± 11.5 µM | Kd [2]: 13.7 ± 7.1 µM | Kd [3]: 29.3 ± 9.8 µM | Kd [4]: 3.5 ± 0.8 µM | Kd [5]: 9 ± 1.8 µM | Kd [6]: 4.6 ± 1.1 µM | competition for NudG-bound (p)ppGpp [7]: but not the structurally very similar GTP and GDP | competition for UshA-bound (p)ppGpp [8]: but not the structurally very similar GTP and GDP | inhibition of [α-32P]ppGpp cleavage by MutT [9]: very limited inhibitory effects | cleavage by TrmE [10]: converted almost all GTP

2-OH-(d)ATP
competition for NudG-bound (p)ppGpp [7]: comparable to unlabeled ppGpp | inhibition of [α-32P]ppGpp cleavage by NudG [11]: slightly better than ppGpp

Nc1ncnc2c1ncn2[C@@H]1O[C@H](COP(=O)(O)O)[C@@H](O)[C@H]1O [AMP]
competition for [α-32P]ppGpp binding to YgdH by YgdH substrates [12]: none of them could outcompete ppGpp

Nc1nc2c(ncn2[C@@H]2O[C@H](COP(=O)(O)O)[C@@H](O)[C@H]2O)c(=O)[nH]1 [GMP]
competition for [α-32P]ppGpp binding to YgdH by YgdH substrates [12]: none of them could outcompete ppGpp

8-oxo-(d)GTP
inhibition of [α-32P]ppGpp cleavage by MutT [9]: totally inhibited | competition for MutT-bound (p)ppGpp [13]: completely outcompete

Nc1nc2c(ncn2[C@@H]2O[C@H](COP(=O)(O)OP(=O)(O)O)[C@@H](O)[C@H]2O)c(=O)[nH]1 [GDP]
Kd [2]: 1.3 ± 0.1 µM | competition for NudG-bound (p)ppGpp [7]: but not the structurally very similar GTP and GDP | competition for UshA-bound (p)ppGpp [8]: but not the structurally very similar GTP and GDP

O=P(O)(O)OC[C@H]1OC(OP(=O)(O)OP(=O)(O)O)[C@H](O)[C@@H]1O (stereo partly shown) [PRPP, phosphoribosyl pyrophosphate]
competition for bound [α-32P]ppGpp on Hpt [14]: partially outcompete

Nc1ncnc2c1ncn2[C@@H]1O[C@H](COP(=O)(O)OP(=O)(O)OP(=O)(O)O)[C@@H](O)[C@H]1O [ATP]
competition for NudG-bound (p)ppGpp [7]: did not compete

B1: YgdH (ECK2790), His6-YgdH (enzyme, E. coli K-12, UniProt P0ADR8 1-454, looked up)
chain: MITHISPLGSMDMLSQLEVDMLKRTASSDLYQLFRNCSLAVLNSGSLTDNSKELLSRFENFDINVLRRERGVKLELINPPEEAFVDGRIIRALQANLFAVLRDILFVYGQIHNTVRFPNLNLDNSVHITNLVFSILRNARALHVGEAPNMVVCWGGHSINENEYLYARRVGNQLGLRELNICTGCGPGAMEAPMKGAAVGHAQQRYKDSRFIGMTEPSIIAAEPPNPLVNELIIMPDIEKRLEAFVRIAHGIIIFPGGVGTAEELLYLLGILMNPANKDQVLPLILTGPKESADYFRVLDEFVVHTLGENARRHYRIIIDDAAEVARQMKKSMPLVKENRRDTGDAYSFNWSMRIAPDLQMPFEPSHENMANLKLYPDQPVEVLAADLRRAFSGIVAGNVKEVGIRAIEEFGPYKINGDKEIMRRMDDLLQGFVAQHRMKLPGSAYIPCYEICT
notes: YgdH (ECK2790), nucleotide nucleosidase of E. coli K-12, expressed from the ASKA plasmid library (pCA24N vector); The ASKA clone carries the gene of E. coli K-12; The printed size of His6-YgdH is 53 kDa; source: E. coli ASKA collection AG1 strain, purified (Ni-NTA, size exclusion chromatography); not shown: His6, N-terminal, kept
stoichiometry N [15]: 4
